Two molecules from patent US8841276B2, “Fulvene and fulvalene analogs and their use in treating cancers” (Emory University, priority 2007, dated 2014) can be followed below.

Data set [1] deals with light-induced retinal function loss. Also noted: species or system Balb-C mice. Particulars: mouse, in vivo. As to the method:
Balb-C mice were exposed to dim (20 lux) or bright (10,000 lux) white light for 6 hours. Mice were injected with Fulvene-5, a triphenylmethane that inhibits NADPH oxidase, dissolved in vehicle (intralipid-DMSO) or vehicle alone. Intraperitoneal injections were given daily for two weeks. Electroretinograms (ERGs) were taken 0, 7, and 14 days following light exposure. Mice were exposed to either dim light (control) or bright light of an intensity that causes retinal degeneration (Light Induced Retinal Degeneration; LIRD). This is a classic rodent model of retinal degeneration. For each lighting condition, half the animals were injected with vehicle and the other half were injected with Fulvene 5. Electroretinograms (ERGs) of the treated mice were measured at one week post-exposure. An ERG is a measure of the change in electrical potential across the eyeball in response to a flash of light, and is used as an indication of retinal function.

The target of data set [2] is T1, Nox2 enzyme (Homo sapiens, UniProt P04839).
T1 construct: expressed in transfected cells; host or cells: Cos-phox cells (COS-7 derived, per the cited Price et al. 2002; own knowledge)
T1 sequence (P04839 2-570 limits assumed): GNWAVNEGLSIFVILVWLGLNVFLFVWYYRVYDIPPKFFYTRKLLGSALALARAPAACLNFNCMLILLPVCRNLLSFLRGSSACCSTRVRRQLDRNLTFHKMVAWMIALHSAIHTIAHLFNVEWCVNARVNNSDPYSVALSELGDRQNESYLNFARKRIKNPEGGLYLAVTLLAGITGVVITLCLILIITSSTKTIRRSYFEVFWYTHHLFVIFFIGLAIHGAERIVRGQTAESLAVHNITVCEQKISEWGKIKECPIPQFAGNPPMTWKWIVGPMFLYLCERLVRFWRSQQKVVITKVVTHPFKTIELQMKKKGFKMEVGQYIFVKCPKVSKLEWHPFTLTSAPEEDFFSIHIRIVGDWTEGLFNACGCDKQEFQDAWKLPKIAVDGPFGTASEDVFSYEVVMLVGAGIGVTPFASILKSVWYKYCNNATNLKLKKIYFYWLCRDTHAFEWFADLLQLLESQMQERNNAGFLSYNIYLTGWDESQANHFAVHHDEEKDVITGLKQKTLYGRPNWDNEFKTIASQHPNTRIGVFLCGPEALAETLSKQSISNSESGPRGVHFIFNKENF
T1 sequence (P13498 2-195 partner limits assumed): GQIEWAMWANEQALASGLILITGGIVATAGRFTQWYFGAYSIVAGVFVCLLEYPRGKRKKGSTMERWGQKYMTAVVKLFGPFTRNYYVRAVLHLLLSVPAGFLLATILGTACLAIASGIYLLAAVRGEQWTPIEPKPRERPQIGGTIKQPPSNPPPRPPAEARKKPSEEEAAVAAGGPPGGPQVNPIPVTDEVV
The data set can be described thus: Inhibition of Nox2 enzyme: H2O2 production in PMA-stimulated Cos-phox cells (homovanillic acid assay). The class given is cell-based. As to conditions: 1 μM, 5 μM, or 20 μM, FIG. 1. As for the experimental part: Various test compounds were examined for activity against Nox2 enzyme by determining hydrogen peroxide (H2O2) production in phorbol 12-myristate 13-acetate (PMA)-stimulated Cos-phox cells treated with different concentrations of vehicle control or a test compound listed in Table 1.
Cos-phox cells have been described previously in Price et al., Blood, 99: 2653-61 (2002), which is incorporated herein by reference.
H2O2 release was measured using the homovanillic acid assay as described previously in Martyn et al., Cellular Signalling, 18:69-82 (2006) and Perry et al., J. Invest. Dermatol., 126:2316-22 (2006), which are incorporated herein by reference. Briefly, 1.5-1.75×10^5 cells/well of a 12-well plate were seeded with Cos-phox cells. The following day, cells were washed once with Hank's balanced salt solution, stimulated with […] phorbol 12-myristate 13-acetate (PMA), and then preincubated for 15 minutes with either vehicle control or different concentrations (i.e., 1 μM, 5 μM, or 20 μM) of test compound no. 8, 10, 15, 16, 17, or 18 in 1 ml of media. The cells were then washed once with Hank's balanced salt solution. Vehicle control or different concentrations of test compound no. […] Fluorescence was read on a BioTek Synergy HT (BioTek Instruments Inc., Winooski, Vt., CA) with an excitation of 320 nm and emission of 440 nm. […]

In the case of `Cc1[nH]cnc1C=C1C=CC=C1` [Test compound 10, 4-(cyclopenta-2,4-dienylidinemethyl)-5-methyl-1H-imidazole], the “Suppression of ERG b-wave amplitude” value in data set [1] is reported as “no suppression of ERG amplitude”. In data set [1] (ip), the “Effect of bright light exposure on retinal function as measured by ERG” value is recorded as “precluded the damaging effects of bright light exposure on retinal function”.

Turning to `CN(C)C=C1C=CC=C1` [compound 8], the “Inhibition of Nox2 enzyme (production of H2O2 relative to untreated control)” value in data set [2] is “inhibited Nox2 enzyme in a dose-dependent manner”.
